In PubChem BioAssay AID248 (DTP/NCI, 2004):
Values joined by “and” are separate entries in the source; they are usually repeats but may differ in a detail not shown here. Identical values can stand only once. Inconclusive results and toxic doses are left out. No stated cut-off is given here; in the data, active means T/C of 150% or more; inactive means T/C below 125%.

Test system: L1210 leukemia ip in BDF1 mice, survival T/C
Test: NCI In Vivo Anticancer Drug Screen. Data for tumor model L1210 Leukemia (intraperitoneal) in B6D2F1 (BDF1) mice
Details: endpoint: mean survival time, higher = longer survival
Summary of the method: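 Survival endpoint. Drug-treated group vs vehicle group, expressed as T divided by C. Tumor passaged by transplantation.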

[1] = dose: 100.0 mg/kg/injection, schedule: Q04DX002 (ip), vehicle: saline with Tween-80
[2] = dose: 100.0 mg/kg/injection, schedule: Q04DX003 (ip), vehicle: Klucel (hydroxypropylcellulose) (HPC)
[3] = dose: 100.0 mg/kg/injection, schedule: Q01DX009 (ip), vehicle: Klucel (hydroxypropylcellulose) (HPC)
[4] = dose: 200.0 mg/kg/injection, schedule: Q01DX009 (ip), vehicle: Klucel (hydroxypropylcellulose) (HPC)
[5] = dose: 100.0 mg/kg/injection, schedule: Q04DX003 (ip), vehicle: saline
[6] = dose: 200.0 mg/kg/injection, schedule: Q04DX003 (ip), vehicle: saline
[7] = dose: 400.0 mg/kg/injection, schedule: Q04DX003 (ip), vehicle: saline
[8] = dose: 100.0 mg/kg/injection, schedule: Q04DX003 (ip), vehicle: saline with Tween-80
[9] = dose: 200.0 mg/kg/injection, schedule: Q04DX003 (ip), vehicle: saline with Tween-80
[10] = dose: 400.0 mg/kg/injection, schedule: Q04DX003 (ip), vehicle: saline with Tween-80
[11] = dose: 50.0 mg/kg/injection, schedule: Q01DX009 (ip), vehicle: saline with Tween-80
[12] = dose: 100.0 mg/kg/injection, schedule: Q01DX009 (ip), vehicle: saline with Tween-80
[13] = dose: 200.0 mg/kg/injection, schedule: Q01DX009 (ip), vehicle: saline with Tween-80

Measured: T/C

CC(=O)OCC(=O)[C@@]1(O)CC[C@H]2[C@@H]3CCC4=CC(=O)[C@H](C)C[C@]4(C)[C@@]3(F)[C@@H](O)C[C@@]21C
inactive: dose: 50.0 mg/kg/injection, schedule: Q01DX Z (sc), vehicle: steriod suspending solution 114 % of control | dose: 100.0 mg/kg/injection, schedule: Q01DX Z (sc), vehicle: steriod suspending solution 114 % of control

CNc1c(C)cc(C)c(NC)c1C
inactive: [1] 107 % of control

Cc1ccc(N=Cc2cccc([N+](=O)[O-])c2)cc1
inactive: dose: 100.0 mg/kg/injection, schedule: Q01DX001 (ip), vehicle: Klucel (hydroxypropylcellulose) (HPC) 100 % of control | [2] 98 % of control | dose: 200.0 mg/kg/injection, schedule: Q01DX001 (ip), vehicle: Klucel (hydroxypropylcellulose) (HPC) 94 % of control | dose: 200.0 mg/kg/injection, schedule: Q04DX003 (ip), vehicle: Klucel (hydroxypropylcellulose) (HPC) 100 % of control | dose: 400.0 mg/kg/injection, schedule: Q01DX001 (ip), vehicle: Klucel (hydroxypropylcellulose) (HPC) 91 % of control | dose: 400.0 mg/kg/injection, schedule: Q04DX003 (ip), vehicle: Klucel (hydroxypropylcellulose) (HPC) 103 % of control

COc1cc(NC(=O)Nc2cccc(Cl)c2)c(OC)cc1Cl
inactive: dose: 25.0 mg/kg/injection, schedule: Q04DX002 (ip), vehicle: saline with Tween-80 99 % of control | dose: 50.0 mg/kg/injection, schedule: Q04DX002 (ip), vehicle: saline with Tween-80 99 % of control | [1] 96 % of control

S=C1NC(c2cccs2)N2C(=S)NC(c3cccs3)N12 (stereo not given)
inactive: dose: 100.0 mg/kg/injection, schedule: Q01DX009 (ip), vehicle: gum acacia 96 % of control | dose: 100.0 mg/kg/injection, schedule: Q04DX003 (ip), vehicle: gum acacia 92 % of control | dose: 200.0 mg/kg/injection, schedule: Q01DX009 (ip), vehicle: gum acacia 91 % of control | dose: 200.0 mg/kg/injection, schedule: Q04DX003 (ip), vehicle: gum acacia 97 % of control | dose: 400.0 mg/kg/injection, schedule: Q01DX009 (ip), vehicle: gum acacia 98 % of control | dose: 400.0 mg/kg/injection, schedule: Q04DX003 (ip), vehicle: gum acacia 97 % of control

CCOC(=O)CCC(NC(=O)c1cnc(N)s1)C(=O)OCC (stereo not given)
inactive: dose: 44.0 mg/kg/injection, schedule: Q01DX001 (ip), vehicle: saline with Tween-80 97 % of control | dose: 66.0 mg/kg/injection, schedule: Q01DX001 (ip), vehicle: saline with Tween-80 97 % of control | dose: 100.0 mg/kg/injection, schedule: Q01DX001 (ip), vehicle: saline with Tween-80 97 % of control | dose: 150.0 mg/kg/injection, schedule: Q01DX001 (ip), vehicle: saline with Tween-80 101 % of control | dose: 200.0 mg/kg/injection, schedule: Q01DX001 (ip), vehicle: saline with Tween-80 93 % of control | dose: 400.0 mg/kg/injection, schedule: Q01DX001 (ip), vehicle: saline with Tween-80 102 % of control

CN(C(=O)Nc1ccccc1F)C1CCCCC1
inactive: dose: 50.0 mg/kg/injection, schedule: Q01DX009 (ip), vehicle: Klucel (hydroxypropylcellulose) (HPC) 101 % of control | [3] 90 % of control | [4] 96 % of control

CC1CCCCN1P(N1CCCCC1C)N1CCCCC1C (stereo not given)
inactive: [1] 98 % of control | dose: 200.0 mg/kg/injection, schedule: Q04DX002 (ip), vehicle: saline with Tween-80 98 % of control

CC(C)=CCCC1(C)C=Cc2c(c(C)cc3c2[nH]c2ccccc23)O1 (stereo not given)
inactive: dose: 25.0 mg/kg/injection, schedule: Q04DX002 (ip), vehicle: gum acacia 96 % of control | dose: 50.0 mg/kg/injection, schedule: Q04DX002 (ip), vehicle: gum acacia 89 % of control | dose: 100.0 mg/kg/injection, schedule: Q04DX002 (ip), vehicle: gum acacia 99 % of control

C[N+]12CCCc3cc(CO)cc(c31)CCC2
inactive: dose: 12.5 mg/kg/injection, schedule: Q01DX009 (ip), vehicle: Klucel (hydroxypropylcellulose) (HPC) 101 % of control | dose: 12.5 mg/kg/injection, schedule: Q04DX003 (ip), vehicle: Klucel (hydroxypropylcellulose) (HPC) 97 % of control | dose: 25.0 mg/kg/injection, schedule: Q01DX009 (ip), vehicle: Klucel (hydroxypropylcellulose) (HPC) 105 % of control | dose: 25.0 mg/kg/injection, schedule: Q04DX003 (ip), vehicle: Klucel (hydroxypropylcellulose) (HPC) 92 % of control | dose: 50.0 mg/kg/injection, schedule: Q04DX003 (ip), vehicle: Klucel (hydroxypropylcellulose) (HPC) 97 % of control

CC12CCC(O)CC1=CCC1C2CCC2(C)c3nc(C#N)c(=N)n(O)c3CC12 (stereo not given)
inactive: dose: 100.0 mg/kg/injection, schedule: Q04DX002 (ip), vehicle: Klucel (hydroxypropylcellulose) (HPC) 94 % of control | dose: 200.0 mg/kg/injection, schedule: Q04DX002 (ip), vehicle: Klucel (hydroxypropylcellulose) (HPC) 105 % of control

C/C=C(\CC)C1(C(C)C)C(=O)NC(=O)NC1=O
inactive: dose: 75.0 mg/kg/injection, schedule: Q01DX001 (ip), vehicle: saline 91 % of control

O=[N+]([O-])c1ccc(NN=C(CO)CO)c([N+](=O)[O-])c1
inactive: dose: 100.0 mg/kg/injection, schedule: Q01DX005 (ip), vehicle: saline 98 % of control | [5] 101 % of control | dose: 200.0 mg/kg/injection, schedule: Q01DX005 (ip), vehicle: saline 93 % of control | [6] 100 % of control | dose: 400.0 mg/kg/injection, schedule: Q01DX005 (ip), vehicle: saline 86 % of control | [7] 100 % of control

CCNC(=O)N1CC2CCC(C1)N2C
inactive: [5] 113 % of control | [6] 106 % of control | [7] 98 % of control

CCCCCCC(=O)N(CCCCC)CCCCC
inactive: dose: 100.0 mg/kg/injection, schedule: Q01DX001 (ip), vehicle: carboxymethylcellulose (CMC) 98 % of control | dose: 100.0 mg/kg/injection, schedule: Q01DX009 (ip), vehicle: carboxymethylcellulose (CMC) 96 % of control and 97 % of control | dose: 100.0 mg/kg/injection, schedule: Q04DX002 (ip), vehicle: carboxymethylcellulose (CMC) 100 % of control and 102 % of control | dose: 100.0 mg/kg/injection, schedule: Q04DX003 (ip), vehicle: carboxymethylcellulose (CMC) 93 % of control | dose: 200.0 mg/kg/injection, schedule: Q01DX001 (ip), vehicle: carboxymethylcellulose (CMC) 94 % of control | dose: 200.0 mg/kg/injection, schedule: Q01DX009 (ip), vehicle: carboxymethylcellulose (CMC) 96 % of control and 105 % of control | dose: 200.0 mg/kg/injection, schedule: Q04DX002 (ip), vehicle: carboxymethylcellulose (CMC) 98 % of control and 100 % of control | dose: 200.0 mg/kg/injection, schedule: Q04DX003 (ip), vehicle: carboxymethylcellulose (CMC) 95 % of control | dose: 400.0 mg/kg/injection, schedule: Q01DX001 (ip), vehicle: carboxymethylcellulose (CMC) 104 % of control | dose: 400.0 mg/kg/injection, schedule: Q04DX002 (ip), vehicle: carboxymethylcellulose (CMC) 98 % of control and 103 % of control | dose: 400.0 mg/kg/injection, schedule: Q04DX003 (ip), vehicle: carboxymethylcellulose (CMC) 97 % of control

CC(=O)c1cccc(NC(=O)Oc2ccc(-c3ccccc3)cc2Cl)c1
inactive: [3] 98 % of control | [4] 97 % of control | dose: 400.0 mg/kg/injection, schedule: Q01DX009 (ip), vehicle: Klucel (hydroxypropylcellulose) (HPC) 106 % of control

CC1(C)C(=NNC(N)=O)C(C)(C)C1=NNC(N)=O
inactive: dose: 100.0 mg/kg/injection, schedule: Q01DX001 (ip), vehicle: saline 96 % of control | [2] 91 % of control | dose: 200.0 mg/kg/injection, schedule: Q01DX001 (ip), vehicle: saline 94 % of control | dose: 400.0 mg/kg/injection, schedule: Q01DX001 (ip), vehicle: saline 90 % of control

COc1cccc(C(=O)O)c1C(=O)c1ccc(C)cc1O
inactive: [8] 100 % of control | [9] 97 % of control | [10] 90 % of control

CC1(N)CCC(C(C)(C)N)CC1 (stereo not given)
inactive: dose: 25.0 mg/kg/injection, schedule: Q01DX009 (ip), vehicle: saline with Tween-80 103 % of control | [11] 97 % of control | [12] 92 % of control

OC(c1ccccc1)C1CCCC1 (stereo not given)
inactive: [11] 90 % of control | [12] 93 % of control | [13] 90 % of control

CC(=O)Oc1oc(-c2ccccc2)nc1-c1ccccc1
inactive: [12] 108 % of control | [8] 98 % of control | [13] 94 % of control | [9] 100 % of control | dose: 400.0 mg/kg/injection, schedule: Q01DX009 (ip), vehicle: saline with Tween-80 97 % of control | [10] 104 % of control

CCOP(OCC)Oc1ccccc1
inactive: [8] 92 % of control | [9] 109 % of control | [10] 100 % of control
